Source: patent US20220039395A1, “INSECT CONTROL AGENTS” (priority 2018, published 2022)
“Also recorded” adds a separate entry of the source. Ends that are not written are not given here. Alexa‑488‑C5‑maleimide = fluorescent Alexa 488 label coupled to Cys via C5-maleimide

Tests used:
[1] = test system: M. persicae gut, brain and ventral nerve cord; assay: Receptor mapping assay using fluorescently labelled neuropeptides; format: binding, Myzus persicae; settings: labelled neuropeptide 10^−7 M; for site of binding in the gut: displaced by excess unlabelled peptide
Description: (§1) Aphids were cold anesthetized and the tissue of interest dissected out in a 1:1 solution of Schneider's insect medium and optimized saline.^7,42 The dissected tissue was mounted on a poly-L-lysine-covered 35 mm glass bottom dish containing 1:1 saline. Nuclei were stained via incubation in DAPI (1 μg ml^−1) and a baseline image taken to determine the level of autofluorescence and adjust exposure settings accordingly. All images were recorded on an inverted confocal microscope (Zeiss LSM 510 Meta). A labelled neuropeptide (10^−7 M) was subsequently added and the sample imaged. The concentration of 10^−7 M was chosen for labelled neuropeptides because it represents the minimal concentration required to produce a saturated receptor response, thereby optimizing the conditions for optical detection of ligand-receptor complexes.^7 Following imagining, unlabelled neuropeptide (10^−5 M) was added to the sample and a time-lapse experiment set up to determine if the unlabelled neuropeptide outcompeted the labelled neuropeptide, thus reaffirming the detection of the ligand-receptor complexes. Images were collected every 30 s for a duration of 20-30 m. All images were exported as JPEG files and subsequently viewed in FIJI and Microsoft Illustrator.

[2] = test system: M. rosae gut, brain and ventral nerve cord; assay: as above; format: binding, Macrosiphum rosae; settings: labelled neuropeptide 10^−7 M; for site of binding in the gut: displaced by excess unlabelled peptide
Description: as §1

Myzus persicae [3] = assay: Topical application by spraying, Potter Spray Tower; format: in vivo; settings: 3000 μl, positive control 28.3 μM, counted 48 hours post spray
Description: (§2) Aphids were exposed to test peptides in the absence of additional external stress conditions.
(§3) Brassica rapa (Chinese cabbage; Wong Bok) were infested with 30 adult Myzus persicae aphids per plant. Aphids were left at least 2 hours to settle and begin feeding from the host plant.
Spraying took place inside a designated spray room. To ensure spray tracking, all sprayed solutions had amaranth dye added.
Potter Spray Tower (Burkard Manufacturing) was ‘primed’ by spraying 1000 μl of liquid coating the inside of the tower. Two controls were used:
i) vehicle spray only (Croda ATPlus UEP 100 LQ-(CQ) 0.1% v/v); and ii) Imidacloprid positive control (28.3 μM).
Imidacloprid was always applied last and via a second, separate, Potter Tower, to prevent any possibility of stray pesticide being left inside the tower and contaminating a test peptide-applied plant.
Spray volumes for all solutions were 3000 μl. The 6.9 mm spray head was loaded with 3000 μl of a 1×10^−5M peptide solution diluted in ATPlus 0.1%. After spraying was completed the plant was allowed to rest on the spray platform for 30 seconds to allow settling of the sprayed chemical.
For this experiment there were three test conditions: 1895 alone (1×10^−5M); 2129 alone (1×10^−5M); and a simultaneous co-application of 1895+2129 together (1×10^−5M of each peptide).
(§4) Post peptide application, each condition was placed into its own individual Bugdorm (Watkins and Doncaster, 44545), to prevent repulsed or displaced aphids moving from one condition to another. Numbers of alive and dead aphids on the plant were counted 48 hours post spray, and the presence of any fresh nymphs noted. Plants were watered prior to spraying but not afterwards to eliminate the possibility of drowning any aphids present or washing off the sprayed liquid.
Post spraying, the spray head was filled with over 3000 μl of 70% ethanol and sprayed until empty. The spray head was carefully removed and rinsed with 70% ethanol as some amaranth dye was observed on the spray head. […]

Myzus persicae [4] = assay: Topical application by spraying, air brush; format: in vivo; settings: 750 μl, positive control 28.3 μM, counted 48 hours post spray
Description: as §2, §3
Spraying took place inside an externally vented fume cupboard. […] To ensure spray tracking, all sprayed solutions had amaranth dye added, allowing the full surface of the plant to be evenly coated with the aerosolised compound.
The plants to be sprayed were placed inside a plastic disposal bag, inside the fume cupboard. This was used to control the area exposed to the aerosolised liquid, to avoid extensive spraying and cleaning inside the fume cupboard. The bag was further lined with absorbent paper towel to again help contain and control spray.
Each experiment had three controls:
i) no vehicle or peptide air spray only, negative control to assess effect of spraying on aphid ability to remain attached to the plant; ii) vehicle spray only (Tween 24 0.1%); and iii) Imidacloprid positive control (28.3 μM).
Imidacloprid was always applied last to prevent any possibility of stray pesticide being left inside the disposal bag and contaminating a test peptide applied plant.
Spray volumes for all solutions for this experiment 750 μl.
A clean air brush (ABEST AC06k30) was loaded with 750 μl of peptide solution diluted in […] 0.1% vehicle. For this experiment there were three test conditions: 1895 alone (1×10^−5M); 2129 alone (1×10^−5M); and a simultaneous co-application of 1895+2129 together (1×10^−5M of each peptide). During application, the air brush was held within the plastic bag and the compressor turned on. The air brush was then gently sprayed back and forth across the plant. […]
as §4, with “Plants were watered prior to spraying but not afterwards to eliminate the possibility of drowning any aphids present or washing off the sprayed liquid.” left out

aphid = assay: Topical application of peptides to aphid abdomen by microinjector, mortality; format: in vivo; settings: 9 nl of 1×10^−5 M peptide in Armid FMPC applied topically to abdomen
Description: For peptides 2315, 2320 and 2125, peptides were diluted individually in an Armid FMPC formulation (AkzoNobel Surface Chemistry, Stenungsund, Sweden) to concentration of 1×10^−5 M. Using a Nanoject II Auto-Nanoliter micro-injector, 9 nl of the peptide solution was applied topically to the abdomen of a pre-reproductive adult aphid, coating the cuticle in the solution. Aphids were returned to the host plant and allowed to recover for 24 h before use in experiments. Control aphids were topically applied with 9 nl of the Armid FMPC formulation and, once again, allowed to recover for 24 h on the host plant before use in experiments.
Peptides were applied topically to insect abdomen by microinjector and the insects returned to the plant. Mortality was assessed after 24 hours. Separate controls were performed for each experiment. A group of 9 or 10 insects was used for each time point, and all experiments were performed 3 times.

Aphids = assay: Feeding with peptides in artificial diet, mortality without other stress; format: in vivo, Myzus persicae; settings: for Dead (48 h) / Dead (72 h) / Dead (96 h) / Dead (120 h) / Dead (144 h): artificial diet supplemented with peptide; for effect on mortality in the absence of additional stressors: no additional stress conditions
Description: A standard artificial diet for M. persicae was produced as described in Van Emden (2009) and provided the basal diet to which neuropeptide analogues were added for screening purposes. Neuropeptide analogues were diluted individually in the artificial diet to a pre-determined recommended concentration as follows: 1895 (3.5×10^−5 M) and 2019 (2.0×10^−5 M).
Feeding apparatus were constructed using a set-up developed by Sadeghi et al (2009). For this, a piece of Parafilm was stretched over a Plexiglas ring (h=4 cm, Ø=3 cm) and 100 μl of the artificial diet containing the desired neuropeptide analogue was pipette onto the Parafilm membrane. A second piece of Parafilm, stretched to 4 times the original thickness, was stretched over the original layer, sandwiching the artificial diet between two layers of Parafilm. A strip of Parafilm was wrapped around the circumference of the Plexiglas ring, sealing in the diet. A plastic ring (h=1.2 cm, Ø=3.4 cm) was subsequently placed over the Parafilm layer, creating a walled chamber in which to house test aphids in contact with the Parafilm layer containing the artificial diet. Finally, a small Petri dish (h=1 cm, Ø=3.6 cm), modified for ventilation with net cloth, was placed on top of each feeding apparatus to prevent aphid escape.
To obtain aphids for use in experiments, reproducing anholocyclic adults were placed on individual excised leaves of Chinese cabbage at densities of 5 adults per leaf and allowed to reproduce for 24 h. The stem of each excised leaf was held within a 0.5 mL Eppendorf tube containing water via a punctured hole in the Eppendorf lid, and placed individually within a microcage (L=4 cm, Ø=9.5 cm). Following 24 h, adults were removed and resultant first instar nymphs (<1 day old and synchronised in age to within 24 h) retained. Nymphs were allowed to develop on the Chinese cabbage for 5 days. On day 5, (3rd instar) nymphs were transferred onto the artificial diet containing a neuropeptide analogue at densities of 1 per feeding chamber and monitored daily until death. Aphids were transferred to fresh artificial diet (containing neuropeptide analogue) every 5 days. Life history traits recorded include age at first reproduction, number of nymphs produced per 24 h period, and lifespan. From these parameters, lifetime fecundity and daily fecundity were calculated. Control groups were set up involving aphids reared on the host plant, an artificial diet without a neuropeptide analogue, and an artificial diet containing the native CAPA neuropeptide.
Aphids were reared on artificial diet, alone or supplemented with peptide 2129, 2315, 2316 or 2320. A control group (no test peptide) was reared on a host plant. No other stress conditions were applied.
For peptides 2315, 2316 and 2320, mortality was assessed at 48, 72, 96, 120 and 144 hours. A group of 9 or 10 insects was used for each time point, and all experiments were performed at least 4 times.

Compound: Alexa-488-C5-maleimide-CNSVVLGKKQRFHSWGamide (C(Alexa‑488‑C5‑maleimide)NSVVLGKKQRFHSWG-NH2) [kinin-F]
- staining of brain and ventral nerve cord (VNC) [1]: staining apparent in a bilateral symmetrical ‘ladder’ of neuronal clusters
- site of binding in the gut [1]: bind to the circular and longitudinal muscles of the aphid gut
- staining of brain and ventral nerve cord (VNC) [2]: no specific staining
- site of binding in the gut [2]: bind to the circular and longitudinal muscles of the aphid gut

Compound: O=[N+]([O-])NC1=NCCN1Cc1ccc(Cl)nc1 [Imadocloprid, Imidacloprid, reference compound]
- % Lethality (Myzus persicae [3]): 93%
- % Lethality (Myzus persicae [4]): 100%

Compound: TMR-C5-maleimide-CGANMGLYAFPRVamide (TMR-C5-maleimide on Cys; C-terminal amide; labelled CAPA-1) [CAPA-1-F]
- staining of brain and ventral nerve cord (VNC) [1]: no sites of receptor binding in either the brain or the VNC
- site of binding in the gut [1]: bind to the circular and longitudinal muscles of the aphid gut
- staining of brain and ventral nerve cord (VNC) [2]: no sites of receptor binding in either the brain or the VNC
- site of binding in the gut [2]: bind to the circular and longitudinal muscles of the aphid gut

Compound: ASG[βhL]VAFPRV-NH2 [compound 2315]
- Dead (24 h) (aphid): 33.3%
- Dead (48 h) (Aphids): 45.0%
- Dead (72 h) (Aphids): 60.0%
- Dead (96 h) (Aphids): 70.0%
- Dead (120 h) (Aphids): 77.5%
- Dead (144 h) (Aphids): 80.0%
- effect on mortality in the absence of additional stressors (Aphids): increase mortality in the absence of additional stressors
- effect on mortality in the absence of additional stressors (Aphids; listed as 2135): increase mortality in the absence of additional stress conditions

Compound: ASG[βhL]V[βA]FPRV-NH2 [compound 2320]
- Dead (24 h) (aphid): 33.3%
- Dead (48 h) (Aphids): 70%
- Dead (72 h) (Aphids): 80%
- Dead (96 h) (Aphids): 80%
- Dead (120 h) (Aphids): 80%
- Dead (144 h) (Aphids): 85%
- effect on mortality in the absence of additional stressors (Aphids): increase mortality in the absence of additional stress conditions; also recorded: increase mortality in the absence of additional stressors
